System: Mycobacterium tuberculosis
Test: Antimycobacterial activity against extensively drug-resistant Mycobacterium tuberculosis in presence of clavulanate
Format: functional

Work on `C[C@@H](O)[C@H]1C(=O)N2C(C(=O)O)=C(S[C@@H]3CN[C@H](C(=O)N(C)C)C3)[C@H](C)[C@H]12` [MEROPENEM] yielded an MIC of 0.03 µg/mL.
